Reference: patent US20250313563A1, “GLYCOGEN SYNTHASE KINASE 3 INHIBITORS AND USES THEREOF” (The Broad Institute, Inc., priority 2022, published 2025)
pIC50: −log10 of the molar value. Where two headings read alike, the source gives them in different places.

What was measured:
[1] = biological target: GSK3α (GST-full length GSK3α) (Homo sapiens (Human), UniProt P49840); experiment: GSK3α TR-FRET kinase assay; format: biochemical
Method in brief: (§1)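 IC50s came from the normalized 665/615 TR-FRET ratio after Tb-anti-pSer641 antibody and streptavidin-d2 detection of phosphorylated biotin-glycogen synthase peptide (200 nM). ATP was 4 μM for GSK3α, 2 μM for GSK3b, or 1 mM; 1 nM enzyme, 100 min, ambient, pH 7.5, after 30-min compound preincubation.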

[2] = biological target: GSK3b (GST-full length GSK3b) (Homo sapiens (Human), UniProt P49841); experiment: GSK3b TR-FRET kinase assay; format: biochemical
Method in brief: as §1

[3] = 1 nM GSK3α, 4 μM ATP, 30 minute preincubation, Table 16, read-out: GSK3-A TR-FRET BIOCHEMICAL (TR-FRET)
[4] = 1 nM GSK3b, 2 μM ATP, 30 minute preincubation, Table 16, read-out: GSK3-B TR-FRET BIOCHEMICAL (TR-FRET)
[5] = 1 nM GSK3α, 4 μM ATP, 30 minute preincubation, read-out: GSK3-A TR-FRET BIOCHEMICAL (TR-FRET), IC50
[6] = GSK3-A (TR-FRET 1 mM ATP), GMean, IC50, 1 mM ATP, geometric mean
[7] = 1 nM GSK3b, 2 μM ATP, 30 minute preincubation, read-out: GSK3-B TR-FRET BIOCHEMICAL (TR-FRET), IC50
[8] = GSK3-B (TR-FRET 1 mM ATP), GMean, IC50, 1 mM ATP, geometric mean
[9] = read-out: GSK3-A (TR-FRET 1 mM ATP), GMean, IC50, 1 mM ATP, geometric mean
[10] = read-out: GSK3-B (TR-FRET 1 mM ATP), GMean, IC50, 1 mM ATP, geometric mean
[11] = 1 nM GSK3α, 4 μM ATP, 30 minute preincubation, Table 16, read-out: GSK3-A TR-FRET BIOCHEMICAL (TR-FRET), IC50
[12] = 1 nM GSK3b, 2 μM ATP, 30 minute preincubation, Table 16, read-out: GSK3-B TR-FRET BIOCHEMICAL (TR-FRET), IC50

Chain of GSK3α (GST-full length GSK3α) (P49840 whole entry): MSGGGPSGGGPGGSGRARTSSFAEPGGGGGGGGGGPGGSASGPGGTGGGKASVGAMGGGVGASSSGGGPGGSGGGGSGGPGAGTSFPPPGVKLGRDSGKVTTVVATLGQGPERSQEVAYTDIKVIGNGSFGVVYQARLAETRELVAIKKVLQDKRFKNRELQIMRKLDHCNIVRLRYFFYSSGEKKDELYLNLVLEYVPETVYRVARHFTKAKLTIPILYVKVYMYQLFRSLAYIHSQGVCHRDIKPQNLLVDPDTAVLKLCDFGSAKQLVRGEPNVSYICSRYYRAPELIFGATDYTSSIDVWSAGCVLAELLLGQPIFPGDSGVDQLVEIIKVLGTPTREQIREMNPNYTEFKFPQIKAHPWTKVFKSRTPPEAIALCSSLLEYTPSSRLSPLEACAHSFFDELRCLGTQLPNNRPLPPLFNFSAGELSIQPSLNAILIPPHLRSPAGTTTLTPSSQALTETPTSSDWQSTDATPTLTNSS
Chain of GSK3b (GST-full length GSK3b) (P49841 whole entry): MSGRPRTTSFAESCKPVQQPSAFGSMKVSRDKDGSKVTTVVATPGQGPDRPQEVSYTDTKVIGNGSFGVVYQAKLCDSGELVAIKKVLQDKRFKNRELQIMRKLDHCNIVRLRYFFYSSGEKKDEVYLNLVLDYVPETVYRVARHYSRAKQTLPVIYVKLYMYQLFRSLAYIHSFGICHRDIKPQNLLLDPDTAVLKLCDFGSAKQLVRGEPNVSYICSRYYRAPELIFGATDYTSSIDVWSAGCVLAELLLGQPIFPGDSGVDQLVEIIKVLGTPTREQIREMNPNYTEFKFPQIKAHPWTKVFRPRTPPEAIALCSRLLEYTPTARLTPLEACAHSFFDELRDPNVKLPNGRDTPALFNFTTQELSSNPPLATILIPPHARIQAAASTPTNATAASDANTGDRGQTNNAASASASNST

Compound	pIC50 [1, 3]	pIC50 [2, 4]	further results
COc1ccc(S(=O)(=O)N2CCC3(CC2)C2=C(CC(C)(C)CC2=O)Nc2n[nH]cc23)cn1 [Compound 945666]	≥ 7.00	≥ 7.00	
CC1(C)CC(=O)C2=C(C1)Nc1n[nH]cc1C21CCN(S(=O)(=O)c2ccccc2C(F)(F)F)CC1 [Compound 945667]	≥ 7.00	6.00 to 7.00	
CC1(C)CC(=O)C2=C(C1)Nc1n[nH]cc1C21CCN(S(=O)(=O)c2ccccc2OC(F)F)CC1 [Compound 945668]			pIC50 [1, 5]: ≥ 7.00; pIC50 [1, 6]: ≥ 7.00; pIC50 [2, 7]: ≥ 7.00; pIC50 [2, 8]: 6.00 to 7.00
COc1cc(S(=O)(=O)N2CCC3(CC2)C2=C(CC(C)(C)CC2=O)Nc2n[nH]cc23)ccc1Cl [Compound 945669]	≥ 7.00	≥ 7.00	
CCOc1ccc(S(=O)(=O)N2CCC3(CC2)C2=C(CC(C)(C)CC2=O)Nc2n[nH]cc23)cc1 [Compound 945670]	≥ 7.00	≥ 7.00	pIC50 [1, 6]: 6.00 to 7.00; pIC50 [2, 8]: 5.30 to 6.00
CCn1ccc(S(=O)(=O)N2CCC3(CC2)C2=C(CC(C)(C)CC2=O)Nc2n[nH]cc23)n1 [Compound 945671]	≥ 7.00	≥ 7.00	
Cc1ccc(S(=O)(=O)N2CCC3(CC2)C2=C(CC(C)(C)CC2=O)Nc2n[nH]cc23)s1 [Compound 945672]	≥ 7.00	≥ 7.00	pIC50 [1, 6]: 6.00 to 7.00; pIC50 [2, 8]: 6.00 to 7.00
CC(C)Oc1ccc(S(=O)(=O)N2CCC3(CC2)C2=C(CC(C)(C)CC2=O)Nc2n[nH]cc23)cc1 [Compound 945673]	≥ 7.00	≥ 7.00	
Cc1cc(S(=O)(=O)N2CCC3(CC2)C2=C(CC(C)(C)CC2=O)Nc2n[nH]cc23)c(C)s1 [Compound 945674]	≥ 7.00	6.00 to 7.00	
CC(C)Oc1ccc(S(=O)(=O)N2CCC3(CC2)C2=C(CC(C)(C)CC2=O)Nc2n[nH]cc23)cn1 [Compound 945676]	≥ 7.00	≥ 7.00	
CC1(C)CC(=O)C2=C(C1)Nc1n[nH]cc1C21CCN(S(=O)(=O)c2cnn(C(C)(C)C)c2)CC1 [Compound 945677]	≥ 7.00	6.00 to 7.00	
Cc1cc(S(=O)(=O)N2CCC3(CC2)C2=C(CC(C)(C)CC2=O)Nc2n[nH]cc23)ccc1OC(C)C [Compound 945678]	≥ 7.00	6.00 to 7.00	
CCn1nc(C)c(S(=O)(=O)N2CCC3(CC2)C2=C(CC(C)(C)CC2=O)Nc2n[nH]cc23)c1C [Compound 945679]	6.00 to 7.00	5.30 to 6.00	
COc1ccc(S(=O)(=O)N2CCC3(CC2)C2=C(CC(C)(C)CC2=O)Nc2n[nH]cc23)cc1C [Compound 945680]	≥ 7.00	≥ 7.00	
CCC1(c2cccc(-c3c(C)cncc3C)c2)C2=C(CC(C)(C)CC2=O)Nc2n[nH]cc21 (centres unmarked) [Compound 945703]	≥ 7.00	≥ 7.00	
CCC1(c2cccc(-c3c(F)cncc3OC)c2)C2=C(CC(C)(C)CC2=O)Nc2n[nH]cc21 (centres unmarked) [Compound 945704]	≥ 7.00	≥ 7.00	pIC50 [1, 9]: ≥ 7.00; pIC50 [2, 10]: 6.00 to 7.00
CCC1(c2cccc(C(F)F)c2)C2=C(CC(C)(C)CC2=O)Nc2n[nH]c(C(F)(F)F)c21 (centres unmarked) [Compound 945710]	≥ 7.00	≥ 7.00	pIC50 [1, 9]: ≥ 7.00; pIC50 [2, 10]: ≥ 7.00
Cn1ccc(S(=O)(=O)N2CC[C@]3(C2)C2=C(CC(C)(C)CC2=O)Nc2n[nH]cc23)n1 [Compound 945712]			pIC50 [1, 5]: ≥ 7.00; pIC50 [1, 6]: ≥ 7.00; pIC50 [2, 7]: ≥ 7.00; pIC50 [2, 8]: 6.00 to 7.00
CCC1(c2cccc(S(=O)(=O)C3CC3)c2)C2=C(CC(C)(C)CC2=O)Nc2n[nH]c(C(F)(F)F)c21 (centres unmarked) [Compound 945713]	≥ 7.00	≥ 7.00	pIC50 [1, 9]: ≥ 7.00; pIC50 [2, 10]: ≥ 7.00
Cn1ccc(S(=O)(=O)N2CC[C@@]3(C2)C2=C(CC(C)(C)CC2=O)Nc2n[nH]cc23)n1 [Compound 945714]	≥ 7.00	≥ 7.00	
CC[C@]1(c2cccc(S(=O)(=O)C3CC3)c2)C2=C(CC(C)(C)CC2=O)Nc2n[nH]c(C(F)(F)F)c21 [Compound 945715]	≥ 7.00	≥ 7.00	
CC1(C)CC(=O)C2=C(C1)Nc1n[nH]cc1[C@@]21CCN(S(=O)(=O)c2ccccc2F)C1 [Compound 945719]	≥ 7.00	≥ 7.00	
CC[C@]1(c2cccc(-c3ccncc3O)c2)C2=C(CC(C)(C)CC2=O)Nc2n[nH]cc21 [Compound 945724]	≥ 7.00	≥ 7.00	pIC50 [1, 9]: 6.00 to 7.00; pIC50 [2, 10]: 5.30 to 6.00
CCC1(c2cccc(-c3cncn3C(C)C)c2)C2=C(CC(C)(C)CC2=O)Nc2n[nH]cc21 (centres unmarked) [Compound 945725]			pIC50 [1, 9]: ≥ 7.00; pIC50 [2, 10]: 6.00 to 7.00

Compound	pIC50 [1, 3]	pIC50 [2, 4]	further results
CCc1cccc(N(C)c2cccc([C@]3(CC)C4=C(CC(C)(C)CC4=O)Nc4n[nH]cc43)c2)n1 [Compound 945726]	5.30 to 6.00	< 5.30	
CC[C@]1(c2cccc(-c3cnn(C)c3C)c2)C2=C(CC(C)(C)NC2=O)Nc2n[nH]c(C)c21 [Compound 945727]			pIC50 [1, 5]: < 5.30; pIC50 [2, 7]: < 5.30
CC[C@@]1(c2cccc(-c3ccncc3O)c2)C2=C(CC(C)(C)CC2=O)Nc2n[nH]cc21 [Compound 945728]	5.30 to 6.00	< 5.30	
CC1(C)CC(=O)C2=C(C1)Nc1n[nH]cc1[C@@]21CCC[C@@H](C#N)C1 [Compound 945906]	6.00 to 7.00	6.00 to 7.00	
CCC1(c2cccc(C(F)(F)F)c2)C2=C(CC(C(C)(C)C)NC2=O)Nc2n[nH]cc21 (centres unmarked) [Compound 945921]			pIC50 [1, 5]: 5.30 to 6.00; pIC50 [2, 7]: < 5.30
CC[C@]1(c2cccc(C(F)(F)F)c2)C2=C(C[C@@H](C(C)(C)C)NC2=O)Nc2n[nH]cc21 [Compound 945922]			pIC50 [1, 5]: ≥ 7.00; pIC50 [2, 7]: 6.00 to 7.00
CCC1(c2cccc(C(F)(F)F)c2)C2=C(CC(C(C)(C)C)NC2=O)Nc2n[nH]cc21 (centres unmarked) [Compound 945923]			pIC50 [1, 5]: < 5.30; pIC50 [2, 7]: < 5.30
CCC1(c2cccc(Oc3cncnc3)c2)C2=C(CC(C)(C)CC2=O)Nc2n[nH]cc21 (centres unmarked) [Compound 945939]	6.00 to 7.00	< 5.30	
CCC1(c2cccc(Nc3ncccn3)c2)C2=C(CC(C)(C)CC2=O)Nc2n[nH]cc21 (centres unmarked) [Compound 945943]	≥ 7.00	6.00 to 7.00	
CCC1(c2cccc(Nc3ncccn3)c2)C2=C(CC(C)(C)CC2=O)Nc2n[nH]cc21 (centres unmarked) [Compound 945958]	5.30 to 6.00	< 5.30	
CCC1(c2cccc(-c3ccnc(CCO)c3)c2)C2=C(CC(C)(C)CC2=O)Nc2n[nH]cc21 (centres unmarked) [Compound 945992]	≥ 7.00	6.00 to 7.00	
CCC1(c2cccc(-c3ccnc(C)c3C)c2)C2=C(CC(C)(C)NC2=O)Nc2n[nH]cc21 (centres unmarked) [Compound 945994]			pIC50 [1, 5]: ≥ 7.00; pIC50 [2, 7]: 6.00 to 7.00
CC[C@]1(c2cccc(-c3cc(C)ncc3OC)c2)C2=C(CC(C)(C)CC2=O)Nc2n[nH]cc21 [Compound 945995]	≥ 7.00	≥ 7.00	pIC50 [1, 9]: 6.00 to 7.00; pIC50 [2, 10]: 5.30 to 6.00
CC[C@]1(c2cccc(-c3ccnc(C)c3OC)c2)C2=C(CC(C)(C)CC2=O)Nc2n[nH]cc21 [Compound 945997]	≥ 7.00	≥ 7.00	pIC50 [1, 9]: 6.00 to 7.00; pIC50 [2, 10]: 5.30 to 6.00
CCC1(c2cccc(S(=O)(=O)C3COC3)c2)C2=C(CC(C)(C)CC2=O)Nc2n[nH]cc21 (centres unmarked) [Compound 945998]	≥ 7.00	≥ 7.00	
CC[C@]1(c2cccc(S(=O)(=O)C3CC3)c2)C2=C(CC(C)(C)NC2=O)Nc2n[nH]cc21 [Compound 945999]			pIC50 [1, 5]: ≥ 7.00; pIC50 [2, 7]: ≥ 7.00
CCC1(c2cccc(S(=O)(=O)C3COC3)c2)C2=C(CC(C)(C)CC2=O)Nc2n[nH]cc21 (centres unmarked) [Compound 946003]	6.00 to 7.00	< 5.30	
CCC1(c2cccc(S(=O)(=O)C3CC3)c2)C2=C(CC(C)(C)NC2=O)Nc2n[nH]cc21 (centres unmarked) [Compound 946004]			pIC50 [1, 5]: 6.00 to 7.00; pIC50 [2, 7]: < 5.30
CC[C@@]1(c2ccccc2)C2=C(CC(C)(C)C(O)C2=O)Nc2n[nH]cc21 (some centres unmarked) [Compound 946056]	6.00 to 7.00	< 5.30	
CC1(C)CC(=O)C2=C(C1)Nc1n[nH]cc1[C@@]21CO[C@H](c2ccccc2)C1 [Compound 946072]	≥ 7.00	6.00 to 7.00	
CC1(C)CC(=O)C2=C(C1)Nc1n[nH]cc1[C@@]21CO[C@@H](c2ccccc2)C1 [Compound 946073]	≥ 7.00	6.00 to 7.00	
CC1(C)CC(=O)C2=C(C1)Nc1n[nH]cc1[C@]21CCC[C@H](C#N)C1 [Compound 946078]			pIC50 [1, 11]: 5.30 to 6.00; pIC50 [2, 12]: < 5.30
CC1(C)CC(=O)C2=C(C1)Nc1n[nH]cc1[C@]21CCC[C@@H](C#N)C1 [Compound 946080]			pIC50 [1, 11]: 5.30 to 6.00; pIC50 [2, 12]: 5.30 to 6.00
CCn1nccc1-c1cccc(C2(CC)C3=C(CC(C)(C)CC3=O)Nc3n[nH]cc32)c1 (centres unmarked) [Compound 946090]	6.00 to 7.00	< 5.30	
